Legend:
[1] = molecular target: T1, human serum albumin (HSA) (Homo sapiens, UniProt P02768); assay: intrinsic tryptophan fluorescence quenching titration, Langmuir isotherm fit, room temperature, pH […]; format: binding
T1 construct: gene ALB

[2] = molecular target: T2, bovine serum albumin (BSA) (Bos taurus, UniProt P02769); assay: as above; format: binding
T2 construct: gene ALB
T2 sequence (P02769 25-607): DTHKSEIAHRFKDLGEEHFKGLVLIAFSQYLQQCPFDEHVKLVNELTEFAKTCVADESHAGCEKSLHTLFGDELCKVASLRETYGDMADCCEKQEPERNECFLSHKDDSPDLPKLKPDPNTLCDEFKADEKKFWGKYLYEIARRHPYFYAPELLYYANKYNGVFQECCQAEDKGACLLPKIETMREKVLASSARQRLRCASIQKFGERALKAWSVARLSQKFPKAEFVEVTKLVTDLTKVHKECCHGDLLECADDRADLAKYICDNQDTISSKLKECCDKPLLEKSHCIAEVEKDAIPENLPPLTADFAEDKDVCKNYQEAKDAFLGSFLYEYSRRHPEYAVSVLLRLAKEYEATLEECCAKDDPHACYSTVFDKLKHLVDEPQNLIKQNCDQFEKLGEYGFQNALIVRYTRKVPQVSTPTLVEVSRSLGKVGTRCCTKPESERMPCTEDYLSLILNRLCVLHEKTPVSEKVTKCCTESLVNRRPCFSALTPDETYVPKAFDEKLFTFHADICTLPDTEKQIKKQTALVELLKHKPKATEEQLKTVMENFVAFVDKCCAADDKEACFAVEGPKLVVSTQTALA

T1 sequence (P02768 25-609): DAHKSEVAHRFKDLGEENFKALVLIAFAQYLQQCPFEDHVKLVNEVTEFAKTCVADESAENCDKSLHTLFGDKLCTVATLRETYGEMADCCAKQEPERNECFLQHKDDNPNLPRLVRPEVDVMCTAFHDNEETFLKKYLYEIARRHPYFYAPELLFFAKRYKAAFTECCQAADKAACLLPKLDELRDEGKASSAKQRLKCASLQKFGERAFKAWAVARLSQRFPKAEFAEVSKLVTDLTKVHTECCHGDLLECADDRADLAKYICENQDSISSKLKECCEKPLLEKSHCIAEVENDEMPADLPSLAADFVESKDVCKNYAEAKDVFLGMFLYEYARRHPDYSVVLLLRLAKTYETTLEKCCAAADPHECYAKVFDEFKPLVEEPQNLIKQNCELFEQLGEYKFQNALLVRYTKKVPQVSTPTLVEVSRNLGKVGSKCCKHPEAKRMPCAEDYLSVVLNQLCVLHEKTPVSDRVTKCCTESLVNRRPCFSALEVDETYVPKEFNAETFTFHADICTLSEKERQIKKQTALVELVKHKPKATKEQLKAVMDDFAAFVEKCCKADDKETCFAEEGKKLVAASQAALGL

COC(=O)CCCNC(=O)c1ccc(N(CC(=O)OC(C)(C)C)c2ccc(OC)cc2)cc1 [compound 5, methyl 4-(4-((2-(tert-butoxy)-2-oxoethyl)(4-methoxyphenyl)amino)benzamido)butanoate]
Kd [1]: 2.75 µM | Kd [2]: 3.85 µM
